Series [1] is described as follows: Clearance in mouse at 0.5 mg/kg, iv. Format: ADME, organism-based. To be noted: in vivo.
The target in series [2] is T1, androgen receptor (AR) (Homo sapiens, UniProt P10275).
T1 sequence (P10275 whole entry): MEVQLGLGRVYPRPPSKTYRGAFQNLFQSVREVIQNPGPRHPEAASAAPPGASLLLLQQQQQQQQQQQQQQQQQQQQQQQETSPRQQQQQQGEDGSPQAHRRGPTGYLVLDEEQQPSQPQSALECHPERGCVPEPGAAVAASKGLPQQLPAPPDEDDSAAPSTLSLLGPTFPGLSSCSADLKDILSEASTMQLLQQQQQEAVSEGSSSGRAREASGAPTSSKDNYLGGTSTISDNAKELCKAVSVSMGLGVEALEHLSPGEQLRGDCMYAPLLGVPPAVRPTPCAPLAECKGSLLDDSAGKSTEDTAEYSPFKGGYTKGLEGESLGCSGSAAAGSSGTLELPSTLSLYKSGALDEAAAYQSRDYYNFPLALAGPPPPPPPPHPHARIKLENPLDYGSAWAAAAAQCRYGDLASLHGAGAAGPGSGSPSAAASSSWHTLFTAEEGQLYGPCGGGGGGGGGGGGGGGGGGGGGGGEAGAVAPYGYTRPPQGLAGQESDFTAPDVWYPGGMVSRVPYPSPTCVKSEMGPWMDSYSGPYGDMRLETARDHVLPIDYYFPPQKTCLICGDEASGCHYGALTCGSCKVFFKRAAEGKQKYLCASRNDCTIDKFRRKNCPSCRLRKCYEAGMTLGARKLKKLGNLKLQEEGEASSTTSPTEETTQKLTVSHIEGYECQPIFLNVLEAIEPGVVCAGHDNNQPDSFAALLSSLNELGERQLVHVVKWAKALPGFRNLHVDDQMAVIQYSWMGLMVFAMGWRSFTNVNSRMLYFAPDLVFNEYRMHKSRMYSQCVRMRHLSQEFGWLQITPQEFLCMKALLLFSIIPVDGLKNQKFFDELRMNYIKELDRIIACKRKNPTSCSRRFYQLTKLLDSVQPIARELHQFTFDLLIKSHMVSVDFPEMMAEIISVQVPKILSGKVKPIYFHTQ
Put plainly: Agonist activity at AR (unknown origin) expressed in human LNCaP cells incubated for 20 hrs by luciferase reporter gene assay relative to mifepristone. Format: cell-based. Particulars: human LNCaP cells expressing AR. (A reporter such as luciferase makes a cellular process visible.)

Series [3] deals with T2, Glucocorticoid receptor (Rattus norvegicus, UniProt P06536).
T2 sequence (P06536 whole entry): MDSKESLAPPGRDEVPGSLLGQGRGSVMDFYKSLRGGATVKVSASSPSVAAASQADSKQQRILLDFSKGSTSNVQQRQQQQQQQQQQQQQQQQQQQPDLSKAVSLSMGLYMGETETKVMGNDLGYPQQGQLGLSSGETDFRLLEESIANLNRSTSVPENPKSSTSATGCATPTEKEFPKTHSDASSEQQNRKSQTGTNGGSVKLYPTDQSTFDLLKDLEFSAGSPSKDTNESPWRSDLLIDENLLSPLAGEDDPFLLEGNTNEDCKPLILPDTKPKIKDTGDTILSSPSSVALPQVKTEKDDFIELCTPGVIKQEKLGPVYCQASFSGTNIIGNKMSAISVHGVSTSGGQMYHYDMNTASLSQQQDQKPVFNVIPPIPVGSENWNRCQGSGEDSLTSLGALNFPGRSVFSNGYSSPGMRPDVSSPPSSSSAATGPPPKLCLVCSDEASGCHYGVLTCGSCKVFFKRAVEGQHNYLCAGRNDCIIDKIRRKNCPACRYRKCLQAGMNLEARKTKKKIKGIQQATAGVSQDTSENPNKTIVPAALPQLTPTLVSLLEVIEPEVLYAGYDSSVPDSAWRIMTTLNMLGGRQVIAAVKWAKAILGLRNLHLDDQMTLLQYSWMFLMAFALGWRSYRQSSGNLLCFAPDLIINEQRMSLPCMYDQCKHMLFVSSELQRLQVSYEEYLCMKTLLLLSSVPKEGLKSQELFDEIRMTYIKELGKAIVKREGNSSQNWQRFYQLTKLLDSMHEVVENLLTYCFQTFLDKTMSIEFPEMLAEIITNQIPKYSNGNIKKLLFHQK
As to the kind of experiment: Antagonist activity at GR in rat PBMC assessed as reduction in dexamethasone-induced GILZ gene expression incubated for 24 hrs by RT-qPCR method. It is filed as cell-based.

The target of series [4] is T3, Mineralocorticoid receptor (Homo sapiens, UniProt P08235).
T3 sequence (P08235 whole entry): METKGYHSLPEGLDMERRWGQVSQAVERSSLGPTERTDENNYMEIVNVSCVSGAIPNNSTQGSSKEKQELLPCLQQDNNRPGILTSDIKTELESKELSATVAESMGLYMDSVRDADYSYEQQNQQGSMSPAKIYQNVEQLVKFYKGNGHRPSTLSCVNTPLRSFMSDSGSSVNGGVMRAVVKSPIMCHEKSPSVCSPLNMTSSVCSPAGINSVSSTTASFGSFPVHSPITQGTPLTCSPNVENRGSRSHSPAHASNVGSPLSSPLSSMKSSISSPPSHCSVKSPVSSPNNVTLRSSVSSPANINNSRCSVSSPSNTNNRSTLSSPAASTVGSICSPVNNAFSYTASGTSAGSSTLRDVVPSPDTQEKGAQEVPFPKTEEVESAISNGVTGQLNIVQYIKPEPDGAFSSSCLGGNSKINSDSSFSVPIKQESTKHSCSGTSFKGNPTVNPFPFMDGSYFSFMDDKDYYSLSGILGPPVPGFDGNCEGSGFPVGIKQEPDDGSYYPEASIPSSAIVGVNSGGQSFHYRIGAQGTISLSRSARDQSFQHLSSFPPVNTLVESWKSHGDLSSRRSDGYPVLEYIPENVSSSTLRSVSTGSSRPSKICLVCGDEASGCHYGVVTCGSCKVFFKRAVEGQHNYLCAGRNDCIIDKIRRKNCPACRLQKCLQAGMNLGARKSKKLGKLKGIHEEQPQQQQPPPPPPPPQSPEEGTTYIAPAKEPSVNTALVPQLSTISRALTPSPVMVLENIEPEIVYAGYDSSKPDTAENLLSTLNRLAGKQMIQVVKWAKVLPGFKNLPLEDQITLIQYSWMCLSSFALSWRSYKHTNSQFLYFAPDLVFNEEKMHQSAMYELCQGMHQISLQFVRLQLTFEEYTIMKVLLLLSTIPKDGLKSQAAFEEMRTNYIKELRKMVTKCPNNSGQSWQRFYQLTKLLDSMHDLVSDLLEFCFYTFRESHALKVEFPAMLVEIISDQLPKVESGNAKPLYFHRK
As to the kind of experiment: Antagonist activity at human MR expressed in CHO-K1 cells assessed as reduction in aldosterone-induced protein interaction between MR and its coactivator SRC at 5 uM incubated for 24 hrs by beta-galactosidase based chemiluminescence assay. It is filed as cell-based. Particulars: cho-k1, 24 h; call rule not given here.

Series [5] in a line: AUC in mini pig at 10 mg/kg, po. It is filed as ADME, organism-based, Sus scrofa. Particulars: in vivo.
Series [6] in a line: AUC in mouse at 5 mg/kg, po. It is filed as ADME, organism-based. Particulars: in vivo.

The clearance is a measure of how efficiently the substance is removed, as volume per time. For orientation: Emax means the size of the effect at its maximum, as opposed to the concentration needed. One may read the IC50 as the point on the concentration scale where inhibition reaches its midpoint. What is called AUC is concentration integrated over time. Higher therefore signals high exposure. `CC(C)N(C)c1ccc([C@H]2C[C@@]3(C)[C@@H](CC[C@@]3(O)C#CC(C)(C)C)[C@@H]3CCC4=CC(=O)CC[C@@H]4[C@H]32)cc1` gave a clearance in series [1] of 27.2 mL/min/kg. The molecule further had an Emax at 20 h in series [2] of 11%. For the same molecule, the IC50 in series [3] stood at 59.4 nM. The “inhibition (INH)” value in series [4] is recorded as “Not Active”. Further, the AUC turned out to be 1720 ng·h/mL in series [5] and 644 ng·h/mL in series [6].

The values are drawn from ChEMBL document CHEMBL4145686, “Discovery of a Potent and Selective Steroidal Glucocorticoid Receptor Antagonist (ORIC-101)” (J Med Chem, 2018).
